Data published in article PMC4500896, “Frog intestinal perfusion to evaluate drug permeability: application to p-gp and cyp3a4 substrates” (Frontiers in Pharmacology, 2015).

What was measured:
frog intestine [1] = test: Frog in situ single pass intestinal perfusion (SPIP), parallel-tube model; details: non-absorbable marker in outlet perfusate, frog SPIP
rat everted gut sac = rat everted gut sac model; ref c (footnote not given); cited from earlier work
[2] = Frog in situ single pass intestinal perfusion (SPIP), parallel-tube model; details: Rana tigrina (frog), pH 7.4
Caco-2 = tested on: Caco-2; set-up: method as in b (footnote not given); details: Caco-2 cell data; ref b (footnote not given); cited from earlier work
frog intestine [3] = details: in vivo
[4] = tested on: human intestinal permeability; set-up: method as in a (footnote not given); details: reported human Peff; ref a (footnote not given); cited from earlier work

O=S1(=O)OC(c2ccc(O)cc2)(c2ccc(O)cc2)c2ccccc21 [phenol red]
Recovery of phenol red (frog intestine [1]): 98.3 ± 1.0%

Cc1ncc2n1-c1ccc(Cl)cc1C(c1ccccc1F)=NC2 [Midazolam]
Effective permeability coefficient, Rat (rat everted gut sac): 2.08 ± 0.50^c 10^-4cm s^-1 | Papp at 90 min [2]: 203 ± 7 ×10⁻⁶ cm/s

CCCCc1nc(Cl)c(CO)n1Cc1ccc(-c2ccccc2-c2nn[nH]n2)cc1 [Losartan]
Effective permeability coefficient, Caco-2 (Caco-2): 0.022^b 10^-4cm s^-1 | Change in Peff of the probe drug when co-perfused with inhibitors (frog intestine [3]): significant change in Peff was observed | Papp at 90 min ([2]; other: in situ single pass intestinal perfusion): 42.7 ± 27 ×10⁻⁶ cm/s | Effective permeability coefficient, Human [4]: 1.15^a 10^-4cm s^-1
